# Counter-ions that a name gives are not always drawn. Marks after values point to notes of the source that are not given here.
# How the values were obtained:
# [1] = biological target: T1, CB1 receptor (rat cortex membranes) (Rattus norvegicus, UniProt P20272); experiment: Binding studies on rat cortex membranes; conditions: read-out: Ki, affinity for the CB1 receptor (rat cortex membranes)
# T1 construct: from tissue; host or cells: rat cortex membranes
# Description: Binding Studies on Rat Cortex Membranes
# Membrane protein is prepared from different tissues or from cells by standard methods. Buffer, labelled ligand, DMSO or test substance are pipetted together, then 100 μg of protein are added, and the mixture is well mixed and incubated in a water bath at 30° C. for 60 min. After expiry of the incubation time, the reaction is stopped by addition of ice-cold incubation buffer to each tube. After filtering off, washing is carried out with ¾ ml of incubation buffer. The filters are transferred to minivials and the radioactivity is determined in a scintillation counter. Affinity for the CB1 receptor (rat cortex membranes)
# rat CB1 receptor = biological target: T2, rat CB1 receptor (Rattus norvegicus, UniProt P20272); experiment: CB1 luciferase reporter gene test (CHOluc9 cells, forskolin-stimulated); assay type: cell-based; conditions: CHOluc9 cells with rat CB1, forskolin
# T2 construct: contains an open reading frame of 1419 base pairs which corresponds to a protein of 473 amino acids; expressed in transfected cells; host or cells: CHOluc9 cells, stably transfected with plasmid CMV-RH (pRc/CMV)
# Description: CB1—Luciferase Reporter Gene Test
# 1. Cloning of the Rat Cannabinoid Receptor CB1
# Total RNA from rat brain (the tissue was taken from freshly killed animals and shock-frozen in liquid nitrogen) was isolated by acidic guanidinium thiocyanate/phenol/chloroform extraction (J. Biol. Chem. 1979, 18, 5294) and converted into cDNA by means of reverse transcriptase and random primers (in each case from Invitrogen). The polymerase chain reaction (PCR, conditions: 4 min 94° C., 1×; 1 min 94° C.; 2 min 53° C.; 1 min 72° C., 50 cycles; 1 min 94° C., 2 min 53° C., 4 min 72° C., 1×) was carried out in a Perkin Elmer thermocycler using the enzyme Taq polymerase (Perkin Elmer); the oligonucleotide primers employed (bases 99 to 122: 5′→3′, “down”; 1556-1575: 3′←5′, “up”) were derived from the published sequence of the rat cannabinoid receptor (Nature 1990, 346, 561) and were synthesized on a DNA synthesizer, model 1380 from Applied Biosystems. One part of the PCR reaction was separated in a 1% strength agarose gel in 1× TBE buffer and then stained with ethidium bromide, only one band having the expected length being visible (approximately 1.5 kb). This PCR product was subcloned into the TA cloning vector (Invitrogen) and the nucleotide sequence of the inserts was determined by the dideoxynucleotide chain termination reaction using T7DNA polymerase (Sequenase, USA/Amersham). The insert has a length of 1477 base pairs and contains an open reading frame of 1419 base pairs which corresponds to a protein of 473 amino acids. The number of base pairs, the position of the open reading frame and the number of amino acids agree with the published sequence. Computer analyses were carried out with the aid of the GCG software suite (Genetic Computer Group). The cDNA insert was subcloned into the expression vector pRc/CMV after partial digestion with HindIII and NotI (Biolabs). This construct (plasmid CMV-RH) was employed for transfection experiments.
# 2. Stable Transfection of the CHOluc9 Reporter Cells
# CHOluc9 cells were cultured in 50% Dulbecco's modified Eagle medium/50% F-12 (DMEM/F12) which contained 10% foetal calf serum (FCS). Transfections were prepared in 6-well plates. 7.5 μg of Qiagen-purified CMV-RH plasmid DNA were added per […] with the DOTAP transfection system, corresponding to the experimental protocol of the manufacturer (Boehringer Mannheim). Transfected cells were selected using 1 mg/ml G418 and individual clones were obtained by limiting dilution in 96-well plates. Cell lines which express the cannabinoid receptor were identified for the inhibition of reporter gene expression after incubation with the cannabinoid receptor agonist, WIN-55,212-2, in the presence of forskolin. Several stable transfected and subcloned cell lines were further characterized by means of RT-PCR, as described under 1.
# 3. Test Optimization and Pharmacological Characterization of the CHOCB1 Reporter Cell Line
# With the aim of high sensitivity and reproducibility, low variance and high suitability for carrying out on the robotic system, the luciferase test was optimized by variation of several test parameters, such as, for example, cell density, duration of the growth phase and the test incubation, forskolin concentration, medium composition. […]
# [2] = system: permanent focal cerebral ischaemia (MCA-O); experiment: Permanent focal cerebral ischaemia in the rat (MCA-O); assay type: in vivo; conditions: infarct size after 7 days
# Description: Permanent Focal Cerebral Ischaemia in the Rat (MCA-O)
# Under isoflurane anaesthesia, the median cerebral artery is exposed on one side and the latter and its side branches are irreversibly sealed by means of electrocoagulation. As a result of the intervention a cerebral infarct is formed. During the operation, the body temperature of the animal is kept at 37° C. After wound closure and wearing off of the anaesthesia, the animals are again released into their cage. The administration of substance is carried out according to different time schemes and via different administration routes (i.v., i.p.) after occlusion. The infarct size is determined after 7 days. To do this, the brain is removed, worked up histologically and the infarct volume is determined with the aid of a computer-assisted analysis system.
# Activity in the model of permanent focal cerebral ischaemia (MCA-O)
# [3] = system: subdural haematoma in the rat (SDH); experiment: Subdural haematoma in the rat (SDH); assay type: in vivo
# Description: Subdural Haematoma in the Rat (SDH)
# Under anaesthesia, the animal's own blood is injected subdurally on one side An infarct is formed under the haematoma. Substance administration is carried out according to different time schemes and via different administration routes (i.v., i.p.) The determination of the infarct size is carried out as described in the model of permanent focal ischaemia in the rat (MCA-O)
# Activity in the model “subdural haematoma in the rat (SDH)”
# [4] = Rat hypothermia, agonism testing; assay type: in vivo; conditions: i.v.
# Description: Five minutes after determination of the basal body temperature via an oesophageal temperature probe, the test substance is administered (i.v.). A control group receives only the solvent for the test substances, likewise i.v. The body temperature is measured 7.5, 15, 30 and 60 minutes after i.v. administration. The group size per dose is 5-7 animals (rats).
# Rat hypothermia—Agonism testing
# [5] = 0.03 mg/kg/h, i.v. continuous infusion directly up to 4 hours after occlusion
# [6] = 0.1 mg/kg, i.v. bolus injections directly, 2 and 4 hours after occlusion
# T2 sequence (P20272 whole entry): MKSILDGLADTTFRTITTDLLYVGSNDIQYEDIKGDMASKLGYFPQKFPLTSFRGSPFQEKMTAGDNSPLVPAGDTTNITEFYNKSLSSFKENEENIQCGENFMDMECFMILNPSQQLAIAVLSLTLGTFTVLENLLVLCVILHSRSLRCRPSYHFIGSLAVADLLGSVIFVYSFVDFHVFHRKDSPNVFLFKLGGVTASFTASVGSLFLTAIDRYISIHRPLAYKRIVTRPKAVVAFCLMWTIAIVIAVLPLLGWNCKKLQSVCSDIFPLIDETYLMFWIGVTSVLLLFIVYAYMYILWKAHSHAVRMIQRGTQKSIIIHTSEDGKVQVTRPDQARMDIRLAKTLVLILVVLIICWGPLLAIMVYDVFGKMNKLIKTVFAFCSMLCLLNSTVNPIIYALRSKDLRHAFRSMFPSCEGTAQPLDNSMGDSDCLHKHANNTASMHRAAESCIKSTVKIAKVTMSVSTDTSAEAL
# T1 sequence (P20272 whole entry): as above
smiles,measurement,setting,value
CCCOS(=O)(=O)Nc1ccc(Oc2cccc3ccccc23)cc1,melting point,,95 °C
CCCNS(=O)(=O)Nc1ccc(Oc2cccc3ccccc23)cc1,melting point,,113 to 115 °C
CCCCC(=O)Nc1ccc(Oc2cccc3ccccc23)cc1,melting point,,80 °C
O=S(=O)(NCc1ccccc1)c1ccc(Oc2cccc3ccccc23)cc1,melting point,,144 to 146 °C
CCCCCS(=O)(=O)Nc1ccc(Oc2cccc3c2CCN(CCCC)C3)cc1,melting point,,187 °C
CCCCCS(=O)(=O)Oc1ccc(Oc2cccc3c2CCNC3)cc1,melting point,,143 °C
CCC(=O)Nc1ccc(Oc2ccc(NS(=O)(=O)Cc3ccccc3)cc2)c2ccccc12,melting point,,180 °C
CCCCCS(=O)(=O)Nc1ccc(Oc2cccc3c2CC(CO)(CO)C3)cc1,melting point,,135 to 137 °C
CCCCS(=O)(=O)Nc1ccc([S+]([O-])c2cccc3ccccc23)cc1 (stereo not drawn),melting point,,161 °C
CCCCS(=O)(=O)Nc1ccc(S(=O)(=O)c2cccc3ccccc23)cc1,melting point,,180 °C
CCCC[S+]([O-])Nc1ccc(Oc2cccc3ccccc23)cc1 (stereo not drawn),melting point,,138 to 139 °C
CCCCCS(=O)(=O)N(c1ccc(Oc2cccc3c2CCNC3)cc1)S(=O)(=O)CCCCC (as salt: hydrochloride),melting point,,162 °C
Nc1ccc(Oc2ccc(NS(=O)(=O)Cc3ccccc3)cc2)c2ccccc12 (as salt: hydrochloride),melting point,,252 °C
"CCCCS(=O)(=O)Nc1ccc(Oc2cccc3ccccc23)cc1 [Example 1, 1-N-(1-Butylsulfonyl)amino-4-(naphthyl-1-oxy)benzene]",Ki,[1],590 nM
same,IC50,rat CB1 receptor,15 nM
same,melting point,,108 to 109 °C
same,% Reduction in the infarct volume,[2]; [5],35%
same,% Reduction in the infarct volume,[3]; [6],54%
same,% Reduction in the infarct volume,"[3]; 1.0 mg/kg, i.v. bolus injections directly, 2 and 4 hours after occlusion",(84) %
same,"ED−1° C., effective dose for 1° C. body temperature reduction",[4],1.0 ^b) mg/kg
O=S(=O)(Cc1ccccc1)Nc1ccc(Oc2cccc3ccccc23)nc1 [Example 33],Ki,[1],420 nM
same,IC50,rat CB1 receptor,10 nM
same,melting point,,161 to 162 °C
same,% Reduction in the infarct volume,[2]; [6],33%
same,% Reduction in the infarct volume,[3]; [6],42%
same,"ED−1° C., effective dose for 1° C. body temperature reduction",[4],0.6 ^b) mg/kg
O=S(=O)(Cc1ccccc1)Nc1cccc(Oc2cccc3ccccc23)c1 [Example 51],Ki,[1],41 nM
same,IC50,rat CB1 receptor,0.9 nM
same,melting point,,139.5 °C
same,% Reduction in the infarct volume,[2]; [6],24%
same,% Reduction in the infarct volume,"[3]; 0.01 mg/kg/h, i.v. continuous infusion directly up to 4 hours post-trauma",54%
same,"ED−1° C., effective dose for 1° C. body temperature reduction",[4],0.1 ^b) mg/kg
O=S(=O)(CCCCl)Nc1ccc(Oc2cccc3ccccc23)cc1 [Example 65],Ki,[1],250 nM
same,IC50,rat CB1 receptor,13 nM
same,melting point,,115 °C
same,% Reduction in the infarct volume,[2]; 0.01 mg/kg/h,(47) %
same,% Reduction in the infarct volume,[2]; [5],37%
same,% Reduction in the infarct volume,[3]; [6],53%
same,% Reduction in the infarct volume,"[3]; 0.3 mg/kg/h, i.v. continuous infusion directly up to 4 hours post-trauma",(65) %
same,"ED−1° C., effective dose for 1° C. body temperature reduction",[4],1.0 ^b) mg/kg
CCCCCS(=O)(=O)Oc1ccc(Oc2cccc3ccccc23)cc1 [Example 99],IC50,rat CB1 receptor,2.9 nM
same,"ED−1° C., effective dose for 1° C. body temperature reduction",[4],0.6 ^b) mg/kg
